# In publication PMC9067983, “Identification of highly selective type II kinase inhibitors with chiral peptidomimetic tails” (Journal of Enzyme Inhibition and Medicinal Chemistry, 2022):
# Where a SMILES comes first, the peptide text is derived from it. [ ]: non-standard residue; d: D form. The star is where a group is joined. X1 = Cc1ccc(Nc2ncc3c(n2)N(C)C(=O)N(c2cc(C(=O)*)ccc2C)C3)cn1; Aib = CC(C)(N)C(=O)O
# What was measured:
# Test in all cases: kinase selectivity profiling
# Format in all cases: biochemical
# Details in all cases: 10µM ATP, read-out: % inhibition (relative to DMSO)
# [1] = target: T1, MST4 (Homo sapiens, UniProt Q9P289)
# T1 construct: purchased Reaction Biology Corp
# Protocol: (§1) Full panel kinase profiling and kinase IC50 measurement were performed by using Reaction Biology Corp. (San Diego, USA).
# [2] = target: T2, PAK4 (Homo sapiens, UniProt O96013)
# T2 construct: purchased Reaction Biology Corp
# Protocol: as §1
# [3] = target: T3, CLK2 (Homo sapiens, UniProt P49760)
# T3 construct: purchased Reaction Biology Corp
# Protocol: as §1
# [4] = target: T4, LRRK2 (Homo sapiens, UniProt Q5S007)
# T4 construct: purchased Reaction Biology Corp
# Protocol: as §1
# [5] = target: T5, TAOK3/JIK (Homo sapiens, UniProt Q9H2K8)
# T5 construct: purchased Reaction Biology Corp
# Protocol: as §1
# [6] = target: T6, CDK1/cyclin A (Homo sapiens, UniProt P06493)
# T6 construct: purchased Reaction Biology Corp
# Protocol: as §1
# [7] = target: T7, EPHA7 (Homo sapiens, UniProt Q15375)
# T7 construct: purchased Reaction Biology Corp
# Protocol: as §1
# [8] = target: T8, RSK2 (Homo sapiens, UniProt P51812)
# T8 construct: purchased Reaction Biology Corp
# Protocol: as §1
# [9] = target: T9, DYRK4 (Homo sapiens, UniProt Q9NR20)
# T9 construct: purchased Reaction Biology Corp
# Protocol: as §1
# [10] = target: T10, RIPK3 (Homo sapiens, UniProt Q9Y572)
# T10 construct: purchased Reaction Biology Corp
# Protocol: as §1
# [11] = target: T11, HPK1/MAP4K1 (Homo sapiens, UniProt Q92918)
# T11 construct: purchased Reaction Biology Corp
# Protocol: as §1
# [12] = target: T12, ERK7/MAPK15 (Homo sapiens, UniProt Q8TD08)
# T12 construct: purchased Reaction Biology Corp
# Protocol: as §1
# [13] = target: T13, BRAF (Homo sapiens, UniProt P15056)
# T13 construct: purchased Reaction Biology Corp
# Protocol: as §1
# [14] = target: T14, IR (Homo sapiens, UniProt P06213)
# T14 construct: purchased Reaction Biology Corp
# Protocol: as §1
# [15] = target: T15, MNK1 (Homo sapiens, UniProt Q9BUB5)
# T15 construct: purchased Reaction Biology Corp
# Protocol: as §1
# [16] = target: T16, AKT2 (Homo sapiens, UniProt P31751)
# T16 construct: purchased Reaction Biology Corp
# Protocol: as §1
# [17] = target: T17, CK1d (Homo sapiens, UniProt P48730)
# T17 construct: purchased Reaction Biology Corp
# Protocol: as §1
# [18] = target: T18, EPHA1 (Homo sapiens, UniProt P21709)
# T18 construct: purchased Reaction Biology Corp
# Protocol: as §1
# [19] = target: T19, EPHB4 (Homo sapiens, UniProt P54760)
# T19 construct: purchased Reaction Biology Corp
# Protocol: as §1
# [20] = target: T20, ERN2/IRE2 (Homo sapiens, UniProt Q76MJ5)
# T20 construct: purchased Reaction Biology Corp
# Protocol: as §1
# [21] = target: T21, CDK6/cyclin D3 (Homo sapiens, UniProt Q00534)
# T21 construct: purchased Reaction Biology Corp
# Protocol: as §1
# [22] = target: T22, PKCd (Homo sapiens, UniProt Q05655)
# T22 construct: purchased Reaction Biology Corp
# Protocol: as §1
# [23] = target: T23, PKD2/PRKD2 (Homo sapiens, UniProt Q9BZL6)
# T23 construct: purchased Reaction Biology Corp
# Protocol: as §1
# [24] = target: T24, PKCb1 (Homo sapiens, UniProt P05771)
# T24 construct: purchased Reaction Biology Corp
# Protocol: as §1
# [25] = target: T25, STK39/STLK3 (Homo sapiens, UniProt Q9UEW8)
# T25 construct: purchased Reaction Biology Corp
# Protocol: as §1
# [26] = target: T26, WEE1 (Homo sapiens, UniProt P30291)
# T26 construct: purchased Reaction Biology Corp
# Protocol: as §1
# [27] = target: T27, CK1a1L (Homo sapiens, UniProt Q8N752)
# T27 construct: purchased Reaction Biology Corp
# Protocol: as §1
# [28] = target: T28, CLK4 (Homo sapiens, UniProt Q9HAZ1)
# T28 construct: purchased Reaction Biology Corp
# Protocol: as §1
# [29] = target: T29, P38g (Homo sapiens, UniProt P53778)
# T29 construct: purchased Reaction Biology Corp
# Protocol: as §1
# [30] = target: T30, IKKa/CHUK (Homo sapiens, UniProt O15111)
# T30 construct: purchased Reaction Biology Corp
# Protocol: as §1
# [31] = target: T31, PKCtheta (Homo sapiens, UniProt Q04759)
# T31 construct: purchased Reaction Biology Corp
# Protocol: as §1
# [32] = target: T32, ERK5/MAPK7 (Homo sapiens, UniProt Q13164)
# T32 construct: purchased Reaction Biology Corp
# Protocol: as §1
# [33] = target: T33, CDK4/cyclin D3 (Homo sapiens, UniProt P11802)
# T33 construct: purchased Reaction Biology Corp
# Protocol: as §1
# [34] = target: T34, STK21/CIT (Homo sapiens, UniProt O14578)
# T34 construct: purchased Reaction Biology Corp
# Protocol: as §1
# [35] = target: T35, SNRK (Homo sapiens, UniProt Q9NRH2)
# T35 construct: purchased Reaction Biology Corp
# Protocol: as §1
# [36] = target: T36, JAK3 (Homo sapiens, UniProt P52333)
# T36 construct: purchased Reaction Biology Corp
# Protocol: as §1
# [37] = target: T37, MEK3 (Homo sapiens, UniProt P46734)
# T37 construct: purchased Reaction Biology Corp
# Protocol: as §1
# [38] = target: T38, CDK2/Cyclin A1 (Homo sapiens, UniProt P24941)
# T38 construct: purchased Reaction Biology Corp
# Protocol: as §1
# [39] = target: T39, ALK3/BMPR1A (Homo sapiens, UniProt P36894)
# T39 construct: purchased Reaction Biology Corp
# Protocol: as §1
# [40] = target: T40, RIPK2 (Homo sapiens, UniProt O43353)
# T40 construct: purchased Reaction Biology Corp
# Protocol: as §1
# [41] = target: T41, MASTL (Homo sapiens, UniProt Q96GX5)
# T41 construct: purchased Reaction Biology Corp
# Protocol: as §1
# [42] = target: T42, CDK2/cyclin O (Homo sapiens, UniProt P24941)
# T42 construct: purchased Reaction Biology Corp
# Protocol: as §1
# [43] = target: T43, c-MER (Homo sapiens, UniProt Q12866)
# T43 construct: purchased Reaction Biology Corp
# Protocol: as §1
# T21 sequence (Q00534 whole entry): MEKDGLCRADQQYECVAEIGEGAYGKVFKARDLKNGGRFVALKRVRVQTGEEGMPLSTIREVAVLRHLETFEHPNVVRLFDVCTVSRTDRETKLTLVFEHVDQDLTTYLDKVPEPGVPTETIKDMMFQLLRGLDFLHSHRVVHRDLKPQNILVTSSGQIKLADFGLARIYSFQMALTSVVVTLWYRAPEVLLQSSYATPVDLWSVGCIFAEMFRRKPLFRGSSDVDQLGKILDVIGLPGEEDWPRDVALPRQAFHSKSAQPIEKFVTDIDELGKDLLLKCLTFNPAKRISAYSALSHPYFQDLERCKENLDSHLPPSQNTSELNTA
# T21 sequence (P30281 whole entry partner): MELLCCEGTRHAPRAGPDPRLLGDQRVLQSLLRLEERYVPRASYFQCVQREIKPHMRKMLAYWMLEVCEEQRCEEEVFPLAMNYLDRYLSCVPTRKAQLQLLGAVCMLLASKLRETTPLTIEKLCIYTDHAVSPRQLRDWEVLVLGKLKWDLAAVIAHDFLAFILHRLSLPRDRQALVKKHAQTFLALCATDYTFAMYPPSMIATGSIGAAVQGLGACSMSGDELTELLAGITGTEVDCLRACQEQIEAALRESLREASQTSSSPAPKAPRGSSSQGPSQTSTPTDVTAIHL
# T39 sequence (P36894 24-532): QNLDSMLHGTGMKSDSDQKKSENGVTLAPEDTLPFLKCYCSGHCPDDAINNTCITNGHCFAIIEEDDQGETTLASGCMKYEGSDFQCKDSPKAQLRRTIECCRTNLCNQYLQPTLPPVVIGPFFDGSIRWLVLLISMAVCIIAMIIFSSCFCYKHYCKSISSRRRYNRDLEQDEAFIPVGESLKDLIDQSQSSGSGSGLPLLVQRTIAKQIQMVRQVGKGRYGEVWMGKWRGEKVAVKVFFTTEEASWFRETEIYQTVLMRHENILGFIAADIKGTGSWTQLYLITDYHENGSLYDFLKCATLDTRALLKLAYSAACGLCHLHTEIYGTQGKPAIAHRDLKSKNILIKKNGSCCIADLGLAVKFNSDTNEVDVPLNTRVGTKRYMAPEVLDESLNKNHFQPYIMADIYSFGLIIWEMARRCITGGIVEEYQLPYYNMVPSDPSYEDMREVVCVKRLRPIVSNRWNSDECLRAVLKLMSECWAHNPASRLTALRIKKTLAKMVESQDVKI
# T34 sequence (O14578 whole entry): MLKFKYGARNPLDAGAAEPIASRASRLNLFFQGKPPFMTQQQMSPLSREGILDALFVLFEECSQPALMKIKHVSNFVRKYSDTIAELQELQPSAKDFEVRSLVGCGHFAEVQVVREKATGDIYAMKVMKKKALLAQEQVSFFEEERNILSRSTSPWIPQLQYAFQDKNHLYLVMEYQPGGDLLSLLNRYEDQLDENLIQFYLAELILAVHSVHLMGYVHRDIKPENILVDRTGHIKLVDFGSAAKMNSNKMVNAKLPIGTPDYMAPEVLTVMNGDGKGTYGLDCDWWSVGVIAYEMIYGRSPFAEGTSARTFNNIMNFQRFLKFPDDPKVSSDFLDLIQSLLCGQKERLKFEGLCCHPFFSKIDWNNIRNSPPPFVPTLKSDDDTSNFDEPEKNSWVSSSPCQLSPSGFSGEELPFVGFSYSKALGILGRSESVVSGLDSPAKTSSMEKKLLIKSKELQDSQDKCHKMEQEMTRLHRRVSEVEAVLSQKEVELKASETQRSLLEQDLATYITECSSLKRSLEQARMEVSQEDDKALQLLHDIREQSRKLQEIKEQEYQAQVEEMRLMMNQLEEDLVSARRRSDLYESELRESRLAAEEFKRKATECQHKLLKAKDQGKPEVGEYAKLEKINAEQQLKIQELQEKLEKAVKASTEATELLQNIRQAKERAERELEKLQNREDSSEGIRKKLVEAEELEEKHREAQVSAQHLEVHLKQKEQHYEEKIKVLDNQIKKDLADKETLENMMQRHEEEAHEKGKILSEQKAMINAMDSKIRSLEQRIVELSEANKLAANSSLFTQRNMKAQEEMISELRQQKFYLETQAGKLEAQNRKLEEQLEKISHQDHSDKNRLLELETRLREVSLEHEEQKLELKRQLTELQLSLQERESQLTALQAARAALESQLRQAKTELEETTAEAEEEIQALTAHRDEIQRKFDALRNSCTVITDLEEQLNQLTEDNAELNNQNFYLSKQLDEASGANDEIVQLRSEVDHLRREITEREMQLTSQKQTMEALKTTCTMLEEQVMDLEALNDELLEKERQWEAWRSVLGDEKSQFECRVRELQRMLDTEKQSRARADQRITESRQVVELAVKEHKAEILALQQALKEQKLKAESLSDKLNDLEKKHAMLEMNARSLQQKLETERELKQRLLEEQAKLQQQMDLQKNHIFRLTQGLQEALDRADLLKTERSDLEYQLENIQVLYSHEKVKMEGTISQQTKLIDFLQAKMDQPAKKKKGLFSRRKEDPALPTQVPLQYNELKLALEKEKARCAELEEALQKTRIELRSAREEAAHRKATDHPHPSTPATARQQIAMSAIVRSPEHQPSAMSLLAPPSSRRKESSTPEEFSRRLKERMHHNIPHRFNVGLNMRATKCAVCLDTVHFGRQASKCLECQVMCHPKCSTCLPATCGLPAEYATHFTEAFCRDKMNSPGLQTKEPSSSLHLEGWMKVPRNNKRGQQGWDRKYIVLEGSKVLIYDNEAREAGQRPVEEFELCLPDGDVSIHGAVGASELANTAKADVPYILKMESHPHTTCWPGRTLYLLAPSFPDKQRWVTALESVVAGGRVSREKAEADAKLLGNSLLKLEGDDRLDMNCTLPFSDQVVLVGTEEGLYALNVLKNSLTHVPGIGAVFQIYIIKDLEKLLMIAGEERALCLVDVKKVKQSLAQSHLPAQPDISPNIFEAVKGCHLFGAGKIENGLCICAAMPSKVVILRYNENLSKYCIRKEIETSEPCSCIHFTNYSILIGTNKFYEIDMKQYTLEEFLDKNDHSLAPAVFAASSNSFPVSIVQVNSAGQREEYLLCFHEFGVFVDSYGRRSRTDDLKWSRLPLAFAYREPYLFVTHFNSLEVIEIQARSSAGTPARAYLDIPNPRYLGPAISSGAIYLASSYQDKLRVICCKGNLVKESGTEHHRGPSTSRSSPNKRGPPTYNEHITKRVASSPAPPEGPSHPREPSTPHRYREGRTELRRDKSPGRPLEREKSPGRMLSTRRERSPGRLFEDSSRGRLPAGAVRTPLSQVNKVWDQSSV
# T14 sequence (P06213 28-1382): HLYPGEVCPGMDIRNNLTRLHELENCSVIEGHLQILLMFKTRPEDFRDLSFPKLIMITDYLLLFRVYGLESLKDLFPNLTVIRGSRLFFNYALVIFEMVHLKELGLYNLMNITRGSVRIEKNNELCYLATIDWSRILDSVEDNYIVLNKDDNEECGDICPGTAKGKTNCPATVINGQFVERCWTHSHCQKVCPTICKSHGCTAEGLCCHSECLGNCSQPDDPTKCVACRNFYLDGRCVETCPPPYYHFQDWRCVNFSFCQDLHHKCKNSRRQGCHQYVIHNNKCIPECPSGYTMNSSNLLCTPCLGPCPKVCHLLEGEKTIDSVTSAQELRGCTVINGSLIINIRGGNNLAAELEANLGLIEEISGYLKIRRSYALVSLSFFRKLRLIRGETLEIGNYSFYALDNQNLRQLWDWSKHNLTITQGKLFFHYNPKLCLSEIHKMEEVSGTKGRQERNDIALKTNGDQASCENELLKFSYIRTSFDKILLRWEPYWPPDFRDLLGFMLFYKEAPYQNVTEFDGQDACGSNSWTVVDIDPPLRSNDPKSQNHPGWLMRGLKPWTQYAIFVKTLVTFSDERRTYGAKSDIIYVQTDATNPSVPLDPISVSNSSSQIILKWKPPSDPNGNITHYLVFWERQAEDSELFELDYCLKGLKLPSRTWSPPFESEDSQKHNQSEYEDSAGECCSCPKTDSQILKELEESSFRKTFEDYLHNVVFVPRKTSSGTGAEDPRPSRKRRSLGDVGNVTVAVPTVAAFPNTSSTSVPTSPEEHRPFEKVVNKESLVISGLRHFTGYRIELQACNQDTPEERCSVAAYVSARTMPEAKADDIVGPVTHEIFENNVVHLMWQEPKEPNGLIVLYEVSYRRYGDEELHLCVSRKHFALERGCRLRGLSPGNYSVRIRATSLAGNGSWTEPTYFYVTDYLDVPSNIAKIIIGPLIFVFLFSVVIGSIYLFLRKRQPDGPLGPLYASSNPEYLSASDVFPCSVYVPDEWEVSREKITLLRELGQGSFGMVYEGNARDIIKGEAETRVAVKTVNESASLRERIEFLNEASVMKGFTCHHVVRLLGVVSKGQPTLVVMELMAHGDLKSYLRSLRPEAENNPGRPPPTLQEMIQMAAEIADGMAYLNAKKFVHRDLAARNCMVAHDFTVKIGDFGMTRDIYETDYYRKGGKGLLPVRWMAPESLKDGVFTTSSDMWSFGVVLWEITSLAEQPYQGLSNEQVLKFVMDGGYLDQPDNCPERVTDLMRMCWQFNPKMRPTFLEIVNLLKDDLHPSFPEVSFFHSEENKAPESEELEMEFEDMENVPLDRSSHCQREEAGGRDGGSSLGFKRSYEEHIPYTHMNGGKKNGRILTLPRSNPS
# T3 sequence (P49760 whole entry): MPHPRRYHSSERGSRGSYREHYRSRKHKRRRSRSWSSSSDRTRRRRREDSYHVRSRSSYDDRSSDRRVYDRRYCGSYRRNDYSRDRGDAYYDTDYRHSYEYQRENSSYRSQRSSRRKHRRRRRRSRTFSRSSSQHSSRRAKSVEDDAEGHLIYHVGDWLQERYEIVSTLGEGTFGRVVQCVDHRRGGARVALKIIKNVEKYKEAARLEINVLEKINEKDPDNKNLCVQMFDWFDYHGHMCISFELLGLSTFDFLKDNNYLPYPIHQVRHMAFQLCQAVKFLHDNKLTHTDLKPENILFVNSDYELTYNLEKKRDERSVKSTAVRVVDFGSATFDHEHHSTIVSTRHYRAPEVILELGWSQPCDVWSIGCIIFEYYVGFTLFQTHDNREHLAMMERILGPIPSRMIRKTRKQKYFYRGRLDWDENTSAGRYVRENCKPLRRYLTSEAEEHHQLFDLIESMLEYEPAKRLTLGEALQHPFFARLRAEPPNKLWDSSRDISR
compound,measurement,setting,value
"Cc1ccc(Nc2ncc3c(n2)N(C)C(=O)N(c2cc(C(=O)N[C@H](C(=O)N4CCC[C@H]4C(=O)NC(C)(C)C(=O)N[C@@H](CC(C)C)C(=O)N(C)C)C(C)C)ccc2C)C3)cn1 [7a, (S)-N-(1-(((S)-1-(dimethylamino)-4-methyl-1-oxopentan-2-yl)amino)-2-methyl-1-oxopropan-2-yl)-1-((4-methyl-3-(1-methyl-7-((6-methylpyridin-3-yl)amino)-2-oxo-1,4-dihydropyrimido[4,5-d]pyrimidin-3(2H)-yl)benzoyl)-L-valyl)pyrrolidine-2-carboxamide] (X1-VP[Aib]L-NMe2)",inhibition at 1 µM,[1],0%
same,inhibition at 1 µM,[2],0%
same,inhibition at 1 µM,[3],0%
same,inhibition at 1 µM,[4],0%
same,inhibition at 1 µM,[5],0%
same,inhibition at 1 µM,[6],0%
same,inhibition at 1 µM,[7],2%
same,inhibition at 1 µM,[8],0%
same,inhibition at 1 µM,[9],3%
same,inhibition at 1 µM,[10],0%
same,inhibition at 1 µM,[11],0%
same,inhibition at 1 µM,[12],3%
same,inhibition at 1 µM,[13],7%
same,inhibition at 1 µM,[14],0%
same,inhibition at 1 µM,[15],8%
same,inhibition at 1 µM,[16],0%
same,inhibition at 1 µM,[17],11%
same,inhibition at 1 µM,[18],3%
same,inhibition at 1 µM,[19],16%
same,inhibition at 1 µM,[20],2%
same,inhibition at 1 µM,[21],0%
same,inhibition at 1 µM,[22],0%
same,inhibition at 1 µM,[23],0%
same,inhibition at 1 µM,[24],4%
same,inhibition at 1 µM,[25],0%
same,inhibition at 1 µM,[26],0%
same,inhibition at 1 µM,[27],0%
same,inhibition at 1 µM,[28],0%
same,inhibition at 1 µM,[29],4%
same,inhibition at 1 µM,[30],6%
same,inhibition at 1 µM,[31],0%
same,inhibition at 1 µM,[32],5%
same,inhibition at 1 µM,[33],3%
same,inhibition at 1 µM,[34],0%
same,inhibition at 1 µM,[35],9%
same,inhibition at 1 µM,[36],0%
same,inhibition at 1 µM,[37],0%
same,inhibition at 1 µM,[38],1%
same,inhibition at 1 µM,[39],3%
same,inhibition at 1 µM,[40],1%
same,inhibition at 1 µM,[41],7%
same,inhibition at 1 µM,[42],0%
same,inhibition at 1 µM,[43],1%
